According to patent publication US20090048310A1, “AGENT FOR PREVENTION/TREATMENT OF DISEASE CAUSED BY ACYCLOVIR-RESISTANT HERPESVIRUS” (ASTELLAS PHARMA INC., priority 2005, published 2009):
Where two headings read alike, the source gives them in different places.

Legend:
[1] = test system: ACV-resistant HSV-1 (A4-3^ACV-R strain); assay: Anti-ACV-resistant HSV-1 activity assay (plaque reduction); assay type: cell-based
Experimental: A total of from 100,000 to 150,000 cells of an African green monkey kidney cell (Vero cell) were inoculated into a 24 well plate using a growth medium (Eagle MEM (Nissui) supplemented with 10% FBS) and cultured at 37° C. for 3 to 4 days under 5% CO2 until they became a monolayer. After washing the cells with a maintenance medium, ACV-resistant HSV-1 (A4-3^ACV-R strain) which had been diluted with the maintenance medium (Eagle MEM supplemented with 2% FBS) to a viral titer of from 100 to 250 pfu/200 μl was inoculated therein in 200 μl/well portions. The plate was centrifuged at room temperature at 1500 rpm for 40 minutes and then incubated at 37° C. for 1 hour under 5% CO2 for infection with HSV-1. After washing three times with the maintenance medium, 100 μl of each test drug diluted to an appropriate concentration with the maintenance medium was added to each well. After culturing the cells at 37° C. for 3 to 4 days under 5% CO2, 10% formalin/PBS was added thereto in 200 μl/well portions, and the cells were fixed for 2 to 3 hours. The fixing liquid and culture supernatant were discarded and the plate was washed with water, and then staining was carried out for 2 to 3 minutes by adding a staining liquid (0.025% Crystal Violet) in 100 μl/well portions, and the plate was washed with water and dried at 37° C. The Vero cells infected with HSV-1 cause cell death, and plaques consisting of the dead cells are formed in the mono-layered Vero cells.

[2] = test system: ACV-resistant VZV (Kanno-Br^ACV-R strain); assay: Anti-ACV-resistant VZV activity assay (plaque reduction); assay type: cell-based, varicella zoster virus (VZV); conditions: Human alphaherpesvirus 3, HEF, read-out: EC50, concentration which inhibits 50% of the number of plaques (Example 1)
Experimental: This assay was carried out in reference to the method described by Shigeta S. in The Journal of Infectious Diseases, 147, 3, 576-584, (1983). Specifically, 10,000 cells of human embryonic fibroblast (HEF) were inoculated into a 96 well microtiter plate using a growth medium (Eagle MEM (Nissui) supplemented with 10% (v/v) fetal bovine serum (FBS, Sigma)) and cultured at 37° C. for 4 days under 5% CO2 until they became a monolayer. […] The plate was centrifuged at room temperature at 2000 rpm for 20 minutes and then incubated at 37° C. for 3 hours under 5% CO2 for infection with VZV. After washing three times with the maintenance medium 100 μl of each test drug diluted to an appropriate concentration with the maintenance medium was added to each well. After culturing the cells at 37° C. for 3 to 4 days under 5% CO2, 10% formalin/PBS was added thereto in 100 μl/well portions, and the cells were fixed for 2 to 3 hours. The fixing liquid and culture supernatant were discarded and the plate was washed with water, and then staining was carried out for 2 to 3 minutes by adding a staining liquid (0.025% Crystal Violet) in 50 μl/well portions, and the plate was washed with water and dried at 37° C. The HEF cells infected with VZV cause cell death, and plaques consisting of the dead cells are formed in the mono-layered HEF cells.

ACV-resistant HSV-1 = ACV-resistant HSV-1 infection lethal model in nude mice; assay type: in vivo, nude mouse (CD-1(ICR)-nu/nu); conditions: 100 mg/kg oral twice a day for 15 days; for death suppressing effect (in words): 17 days after infection
Experimental: ACV-resistant HSV-1 (3×10^6 pfu) was inoculated into the peritoneal cavity of each nude mouse (CD-1(ICR)-nu/nu, […], female, Charles River Japan) to cause infection with the virus. Each compound to be tested was made into a methyl cellulose suspension and orally administered at a dose of 100 mg/kg, twice a day for 15 days starting 1 hour after the infection (from 0 to 14 days after the infection).
During 17 days after the infection, death of the mice caused by ACV-resistant HSV-1 infection was observed every day, and the number of survived animals was counted.

HSV-1 strain WT-51 = assay: Cutaneous HSV-1 infection mouse model; assay type: in vivo, HR-1 hairless mouse; conditions: oral, methyl cellulose suspension, 10 mg/kg twice a day for 5 days, scores for 17 days
Experimental: Using a cutaneous HSV-1 infection mouse model prepared in reference to the method of H. Machida et al. (Antiviral Res., 1992, 17, 133-143), the in vivo […] of the compounds of the present invention was tested using an animal model. The skin of each HR-1 hairless mouse [female, 7 weeks of age] was scratched lengthwise and breadthwise several times using a needle and a virus suspension (HSV-1 strain WT-51, 1.5×10^4 PFU/15 μl) was dropped to the scarified region for infection, while anesthetized with diethyl ether.
Tested compounds were administered orally as a methyl cellulose suspension, except for compounds marked with asterisk which were dissolved in 20% Cremophor EL (Nacalai Tesque)/20% polyethylene glycol (PEG) 400/60% H2O solution, starting at 3 hours after the infection, and then at a dose of 10 mg/kg twice a day for 5 days. The symptom of the skin lesion caused by HSV-1 infection were classified in the following scores for 17 days:
Score 0: no signs of infection.
Score 1: localized, barely perceptible small vesicles.
Score 2: slight vesicle spread.
Score 3: large patches of vesicles formed.
Score 4: zosteriform vesicles.
Score 5: large patches of ulcers formed.
Score 6: zosteriform with severe large ulcers.
Score 7: hind limb paralysis or death.
The AUC value was calculated from each group's mean disease score, and the disease inhibitory rate of the group administered with each test compound to the placebo group was calculated using the AUC.

[3] = Human alphaherpesvirus 1, Vero, read-out: EC50, concentration which inhibits 50% of the number of plaques (Example 2), ACV-resistant HSV-1 A4-3 ACV-R strain in Vero cells

Row | SMILES | EC50 [1, 3] [nM] | EC50 [2] [nM] | death suppressing effect (in words) (ACV-resistant HSV-1) | The number of survived animals (n = 10) (ACV-resistant HSV-1; day 0 after infection) | The number of survived animals (n = 10) (ACV-resistant HSV-1; day 1 after infection) | The number of survived animals (n = 10) (ACV-resistant HSV-1; day 2 after infection) | The number of survived animals (n = 10) (ACV-resistant HSV-1; day 4 after infection) | The number of survived animals (n = 10) (ACV-resistant HSV-1; day 5 after infection) | The number of survived animals (n = 10) (ACV-resistant HSV-1; day 6 after infection) | The number of survived animals (n = 10) (ACV-resistant HSV-1; day 7 after infection) | The number of survived animals (n = 10) (ACV-resistant HSV-1; day 8 after infection) | The number of survived animals (n = 10) (ACV-resistant HSV-1; day 9 after infection) | The number of survived animals (n = 10) (ACV-resistant HSV-1; day 10 after infection) | The number of survived animals (n = 10) (ACV-resistant HSV-1; day 11 after infection) | The number of survived animals (n = 10) (ACV-resistant HSV-1; day 12 after infection) | The number of survived animals (n = 10) (ACV-resistant HSV-1; day 14 after infection) | The number of survived animals (n = 10) (ACV-resistant HSV-1; day 16 after infection) | The number of survived animals (n = 10) (ACV-resistant HSV-1; day 17 after infection) | Inhibition ratio (%) (disease inhibitory rate vs placebo from AUC of mean disease score) (HSV-1 strain WT-51) | also measured
1 | Nc1nc2c(ncn2COCCO)c(=O)[nH]1 [ACV, acyclovir] | 68000 |  |  |  |  |  |  |  |  |  |  |  |  |  |  |  |  |  |  | EC50 ([1]; read-out: EC50, concentration which inhibits 50% of the number of plaques (Example 2), ACV-resistant HSV-1 A4-3 ACV-R strain in Vero cells): 120000 nM
2 | Cc1ccc(N(CC(=O)Nc2ccc(-c3cocn3)cc2)C(=O)C2CCS(=O)(=O)CC2)cc1 [Preparation 2, N-(4-methylphenyl)-N-(2-{[4-(1,3-oxazol-4-yl)phenyl]amino}-2-oxoethyl)tetrahydro-2H-thiopyran-4-carboxamide 1,1-dioxide] | 35 | 35 | completely suppressed death of the mice | 10 | 10 | 10 | 10 | 10 | 10 | 10 | 10 | 10 | 10 | 10 | 10 | 10 | 10 | 10 |  | 
3 | Cc1cccc(C)c1N(CC(=O)Nc1ccc(-c2ncon2)cc1)C(=O)C1CCS(=O)(=O)CC1 [Preparation 27, N-(2,6-dimethylphenyl)-N-(2-{[4-(1,2,4-oxadiazol-3-yl)phenyl]amino}-2-oxoethyl)tetrahydro-2H-thiopyran-4-carboxamide 1,1-dioxide] | 68 | 82 | completely suppressed death of the mice | 10 | 10 | 10 | 10 | 10 | 10 | 10 | 10 | 10 | 10 | 10 | 10 | 10 | 10 | 10 |  | 
4 | Cc1ccc(N(CC(=O)Nc2ccc(-c3ncon3)cc2)C(=O)C2CCS(=O)(=O)CC2)cc1F [Preparation 35, N-(3-fluoro-4-methylphenyl)-N-(2-{[4-(1,2,4-oxadiazol-3-yl)phenyl]amino}-2-oxoethyl)tetrahydro-2H-thiopyran-4-carboxamide 1,1-dioxide] |  |  |  |  |  |  |  |  |  |  |  |  |  |  |  |  |  |  | 82 | 
5 | Cc1cc(N(CC(=O)Nc2ccc(-c3ncon3)cc2)C(=O)C2CCS(=O)(=O)CC2)ccc1Cl [Preparation 37, N-(4-chloro-3-methylphenyl)-N-(2-{[4-(1,2,4-oxadiazol-3-yl)phenyl]amino}-2-oxoethyl)tetrahydro-2H-thiopyran-4-carboxamide 1,1-dioxide] |  |  |  |  |  |  |  |  |  |  |  |  |  |  |  |  |  |  | 100 | 
6 | Cc1ccc(N(CC(=O)Nc2ccc(-c3ncon3)cc2)C(=O)C2CCS(=O)(=O)CC2)c(C)c1F [Preparation 39, N-(3-fluoro-2,4-dimethylphenyl)-N-(2-{[4-(1,2,4-oxadiazol-3-yl)phenyl]amino}-2-oxoethyl)tetrahydro-2H-thiopyran-4-carboxamide 1,1-dioxide] |  |  |  |  |  |  |  |  |  |  |  |  |  |  |  |  |  |  | 80 | 
